Read-outs that look alike come from different tables or passages of the source. One block for each molecule: values may come before it.
Tests used:
[1] = test system: Human trabecular meshwork (TM) cells; experiment: PGE2 production (RIA) in human trabecular meshwork cells; type: cell-based; settings: 1 h at 37° C., BK 100 nM or 1 μM, fluprostenol 1 μM, non-peptide agonists 1 μM or 10 μM, FIG. 6
Protocol: The ability of BK agonists to stimulate prostaglandin E2 (PGE2) production was examined as follows. Human trabecular meshwork (TM) cells were seeded in culture plates and allowed to reach confluence. […] Fluprostenol was used as a positive control. After this time the assay was terminated by placing the assay plates on ice and by the addition of 100 μL of a cell-lysis reagent supplied with the PGE2 radioimmunoassay (RIA) kit (Amersham Pharmacia Biotech, Arlington Heights, Ill.). All reagents and standards supplied in the RIA kit were prepared and the RIA performed according to the manufacturer's instructions. Assay buffer, diluted prostaglandin E2 (PGE2) standard and supernatant from the cell-based experiment (diluted 1:100 v/v) were then pipetted into appropriate tubes as specified in the kit instructions. […]
After this incubation, all tubes were placed in an ice-bath and 1 ml cold precipitating reagent supplied in the kit was added to the tubes, the content mixed and incubated for 25 min at 4° C. […] The supernatants of all tubes were decanted as specified in the kit instructions and the RIA samples analyzed on a gamma-counter. The levels of PGE2 generated by the test agent were then quantified in comparison with the PGE2-standard curve. Dose-response data for the test agent were constructed and the potency and intrinsic activity determined as described above for other assays.

[2] = target: T1, B2-receptors in h-TM cells (Homo sapiens, UniProt P30411); experiment: [Ca2+]i mobilization (FLIPR) in h-TM cells, agonist mode; type: cell-based; settings: for Emax: HTM, read-out: Intrinsic Activity (Emax, % max relative to BK)
T1 construct: B2-receptor proteins in h-TM, h-CM and h-NPE cells; endogenous in cells; host or cells: human trabecular meshwork (h-TM), human ciliary muscle (h-CM) and human non-pigmented ciliary epithelial (h-NPE) cells
T1 sequence (P30411 1-391): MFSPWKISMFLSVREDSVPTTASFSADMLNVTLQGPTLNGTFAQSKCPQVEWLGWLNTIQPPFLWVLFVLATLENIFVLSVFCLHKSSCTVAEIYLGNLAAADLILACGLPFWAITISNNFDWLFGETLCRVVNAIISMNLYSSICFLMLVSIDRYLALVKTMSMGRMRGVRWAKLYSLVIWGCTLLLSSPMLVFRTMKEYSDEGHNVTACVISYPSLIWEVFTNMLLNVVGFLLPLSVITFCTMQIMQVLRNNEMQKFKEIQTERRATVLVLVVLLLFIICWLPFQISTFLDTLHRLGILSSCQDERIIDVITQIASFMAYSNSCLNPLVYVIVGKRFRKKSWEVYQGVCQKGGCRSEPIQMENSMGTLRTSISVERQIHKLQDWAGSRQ
Protocol: (§1) On the day of the experiment, one vial of FLIPR Calcium Assay Kit dye is re-suspended in 50 mL of a FLIPR buffer consisting of Hank's Balanced Salt Solution (HBSS), 20 mM HEPES, and 2.5 mM probenecid, pH 7.4. Cells are loaded with the calcium-sensitive dye by addition of an equal volume (50 μL) to each well of the 96-well plate and incubated with dye for 1 h at 23° C. After this time, the test compound plate and cell plate are placed in the FLIPR instrument. At the beginning of an experimental run, a signal test is performed to check the basal fluorescence signal from the dye-loaded cells and the uniformity of the signal across the plate. The basal fluorescence is adjusted between 8000-12000 counts by modifying the exposure time, the camera F-stop, or the laser power. Instrument settings for a typical assay are the following: laser power 0.3-0.6 W, camera F-stop F/2, and exposure time 0.4 sec.
(§2) Fluorescence data are collected in real-time at 1.0 sec intervals for the first 60 secs and at 6.0 sec intervals for an additional 120 secs. […] The data are then analyzed using an automated, iterative, sigmoidal curve-fitting computer program to obtain the potency and intrinsic activities of the test agents as previously described (Sharif et al. J. Pharmacol. Exp. Ther. 286: 1094-1102, 1998; Sharif et al. Invest. Ophthalmol. Vis. Sci. 39:2562-2571, 1998; Kelly et al. J. Pharmacol. Exp. Ther. 304: 238-245, 2003). The sources of materials and reagents for such assays can be found in the references cited above.

[3] = target: T2, B2-receptors in h-NPE cells (Homo sapiens, UniProt P30411); experiment: [Ca2+]i mobilization (FLIPR) in h-NPE cells, agonist mode; type: cell-based; settings: for Emax: read-out: Intrinsic Activity (Emax, % max relative to BK)
T2 construct: B2-receptor proteins in h-TM, h-CM and h-NPE cells; endogenous in cells; host or cells: human trabecular meshwork (h-TM), human ciliary muscle (h-CM) and human non-pigmented ciliary epithelial (h-NPE) cells
T2 sequence (P30411 1-391): T1 sequence (P30411 1-391)
Protocol: as §1, §2

[4] = target: T3, B2-receptors in h-CM cells (Homo sapiens, UniProt P30411); experiment: [Ca2+]i mobilization (FLIPR) in h-CM cells, agonist mode; type: cell-based; settings: read-out: Intrinsic Activity (Emax, % max relative to BK)
T3 construct: B2-receptor proteins in h-TM, h-CM and h-NPE cells; endogenous in cells; host or cells: human trabecular meshwork (h-TM), human ciliary muscle (h-CM) and human non-pigmented ciliary epithelial (h-NPE) cells
T3 sequence (P30411 1-391): T1 sequence (P30411 1-391)
Protocol: as §1, §2

[5] = target: T4, BK B2-Receptor in h-NPE cells (Homo sapiens, UniProt P30411); experiment: Antagonism of FR-190997-induced [Ca2+]i mobilization in h-NPE cells; type: cell-based; settings: FR-190997 as the agonist, read-out: Antagonist Potency (Ki)
T4 construct: B2-receptor proteins in h-TM, h-CM and h-NPE cells; endogenous in cells; host or cells: human trabecular meshwork (h-TM), human ciliary muscle (h-CM) and human non-pigmented ciliary epithelial (h-NPE) cells
T4 sequence (P30411 1-391): T1 sequence (P30411 1-391)
Protocol: as §1, §2

[6] = test system: conscious ocular hypertensive cynomolgus monkey eyes; experiment: IOP response in lasered (hypertensive) eyes of conscious cynomolgus monkeys, topical ocular; type: in vivo; settings: for % Change in IOP: Table 10, 300 μg topical ocular
Protocol: Intraocular pressure (IOP) is determined with an Alcon Pneumatonometer (Alcon Laboratories, Inc., Fort Worth, Tex.) after light corneal anesthesia with 0.1% proparacaine. Right eyes are hypertensive as a result of laser trabeculoplasty. After a baseline IOP measurement, test compound is instilled in the right eyes only of 8-10 cynomolgus monkeys. Vehicle is instilled in the right eyes of 5-6 additional animals. Subsequent IOP measurements are taken at 1, 3, and 6 hours. IOP measurements are also taken on left eyes (normotensive and untreated) at each of these time points. The percent change in IOP from baseline is determined for each animal for every IOP measurement (Sharif et al. J. Ocular Pharmacol. Ther. 17: 305-317, 2001; May et al., J Pharmacol Exp Ther. 306: 301-309, 2003; Sharif et al. Invest. Ophthalmol. Vis. Res. 47: 4001-4010, 2006). Group mean and standard error of the mean (SEM) are calculated for each time point. […] In cases where the compound of invention has poor ocular bioavailability, the compound may need to be administered intracamerally or intravitreally in order to observe the IOP-lowering efficacy.
The IOP-lowering effect was slow to develop but significant IOP reduction was observed even 3 hours post-dosing with maximum ocular hypotension observed 16-48 hours post-dosing (Tables 6-8; FIGS. 3b-5).

Compound: O=C(O)CCC/C=C\C[C@@H]1[C@@H](/C=C/[C@@H](O)COc2cccc(C(F)(F)F)c2)[C@H](O)C[C@@H]1O (racemic) [fluprostenol, reference compound]
- production of endogenous prostaglandins (PGE2) [1]: stimulate the production of endogenous prostaglandins

Compound: N=C(N)NCCC[C@H](NC(=O)[C@H](Cc1ccccc1)NC(=O)[C@@H]1CCCN1C(=O)[C@H](CO)NC(=O)[C@H](Cc1ccccc1)NC(=O)CNC(=O)[C@@H]1C[C@@H](O)CN1C(=O)[C@@H]1CCCN1C(=O)[C@@H](N)CCCNC(=N)N)C(=O)O [Hyp^3-BK, Arg-Pro-Hyp-Gly-Phe-Ser-Pro-Phe-Arg]
- EC50 [2]: 0.9 ± 0.3 nM
- Emax [2]: 110%
- EC50 [3]: 6 ± 0.6 nM
- Emax [3]: 93%
- Emax [4]: 105%

Compound: CSCC[C@H](N)C(=O)N[C@@H](CCCCN)C(=O)N[C@@H](CCCNC(=N)N)C(=O)N1CCC[C@H]1C(=O)N1CCC[C@H]1C(=O)NCC(=O)N[C@@H](Cc1ccccc1)C(=O)N[C@@H](CO)C(=O)N1CCC[C@H]1C(=O)N[C@@H](Cc1ccccc1)C(=O)N[C@@H](CCCNC(=N)N)C(=O)O [Met-Lys-BK]
- Emax ([2]; h-TM cells, mean ± SEM): 111%
- Emax ([3]; h-NPE cells, mean ± SEM): 77%
- Emax ([4]; h-CM cells, mean ± SEM): 110%

Continued, in another order:

- Emax ([2]; h-TM cells, mean ± SEM): 112%
- Emax ([3]; h-NPE cells, mean ± SEM): 70%
- Emax ([4]; h-CM cells, mean ± SEM): 94%
Compound: N=C(N)NCCC[C@H](N)C(=O)N1CCC[C@H]1C(=O)N1CCC[C@H]1C(=O)NCC(=O)N[C@@H](Cc1ccccc1)C(=O)N[C@@H](CO)C(=O)N1CCC[C@H]1C(=O)N[C@@H](Cc1ccccc1)C(=O)O [Des-Arg^9-BK]

- Ki [5]: 146 nM
Compound: CNC(=O)c1ccc(/C=C/C(=O)NCC(=O)N(C)c2ccc(Cl)c(COc3cccc4ccc(C)nc34)c2Cl)cc1 [FR-165649, reference compound]
- modulation of IOP ([6]; 300 μg topically administered): failed to modulate IOP
- % Change in IOP ([6]; Dose 1/1 hr): 1.0 ± 3.1%
- % Change in IOP ([6]; Dose 1/3 hr): 0.7 ± 3.5%
- % Change in IOP ([6]; Dose 1/6 hr): −6.2 ± 4.7%
- % Change in IOP ([6]; Dose 1/24 hr): −4.0 ± 3.2%

- Emax ([2]; h-TM cells, mean ± SEM): 115%
- Emax ([3]; h-NPE cells, mean ± SEM): 90%
- Emax ([4]; h-CM cells, mean ± SEM): 115%
Compound: N=C(N)NCCC[C@H](NC(=O)[C@H](Cc1ccccc1)NC(=O)[C@@H]1CCCN1C(=O)[C@H](CO)NC(=O)[C@H](Cc1ccccc1)NC(=O)CNC(=O)[C@@H]1CCCN1C(=O)[C@@H]1CCCN1C(=O)[C@H](CCCNC(=N)N)NC(=O)[C@@H](N)CCCCN)C(=O)O [Lys-BK]

— patent publication US8173668B1 (Alcon Research, Ltd., priority 2007, dated 2012)
